Measurements published in article PMC11137182, “Selective and brain-penetrant ACSS2 inhibitors target breast cancer brain metastatic cells” (Frontiers in Pharmacology, 2024).

Columns and labels:
MDA-MB-231BR cells [1] = assay: Intracranial MDA-MB-231BR tumor model in vivo; set-up: species or system Nu/Nu mice
Description: Intracranial injections were performed as previously described ([Ciraku et al., 2021]). Briefly, Nu/Nu or BalbC female 4–6 week old mice from Charles River Laboratories (Wilmington, MA, United States) were immobilized using the Just for Mice ™ Stereotaxic Frame (Harvard Apparatus, Holliston, MA, United States) and injected intracranially with 5 μL of a 20,000 cells/μL solution of MDA-MB-231BR or 4T1BR cells stably expressing luciferase. Mice were injected intraperitoneally with 30 mg/kg of Dluciferin solution (Caliper Life Sciences, Hopkinton, MA) and results analyzed using Living Image software (Caliper Life Sciences, Waltham, MA, United States). For in vivo analog trials, mice were weighed daily and injected intraperitoneally with 50 mg/kg of AD-8007. Mice were euthanized 3 weeks after injection following survivial or at the end of drug treatment at indiciated day. The animal study was reviewed and approved by the Institutional Animal Care and Use Committee.
Brains were dissected, fixed in 4% formalin and prepared for processing/sectioning/embedding/blocking to generate paraffin embedded slides. The slides containing brain metastatic tumors were deparaffinized by Xylene and subsequent rehydration was done by decreasing concentrations of ethanol-water mixture. Antigen retrieval was done by citrate buffer immersion and steaming the slides for 45 min. Tissue was treated with 200–400 ul 1% BSA+5% serum PBS solution for 1h. Primary incubation was done at 4 °C overnight using primary antibody anti-FasN (Cell Signaling Technologies, C20G5). Secondary antibody incubation was done for an hour at RT with HRP conjugated Anti-Rabbit Secondary antibody (Cell Signaling Technologies). at 1:100 dilution. For IHC the stain was developed using the DAB kit by Vectastain (Vector Labs, Burlingame, CA, United States). Finally, slides were mounted and imaged under a light microscope. H&E and Ki-67 staining were performed and assessed at TJU, Department of Pathology, Philadelphia, PA by board-certified pathologist.

[2] = system: 4T1BR tumor bearing brain slices; assay: Ex vivo tumor-brain slice model; set-up: species or system nu/nu mice; settings: 4T1BR brain slices, 100 μM, 6 days, bioluminescence
Description: Ex vivo brain slice tumor model was performed as previously described ([Ciraku et al., 2021]). Briefly, Nu/Nu athymic 4–6 week old mice Charles River Laboratories (Wilmington, MA, United States) were immobilized using the Just for Mice Stereotaxic Frame (Harvard Apparatus, Holliston, MA, United States) and injected intracranially with 5uL of 20,000 cells/uL solution of luciferase tagged MDA-MB-231BR or 4T1BR cells. Tumor growth was monitored via bioluminescence imaging on the IVIS system (Perkin Elmer, Waltman, MA, United States). Organotypic hippocampal cultures were prepared as described previously ([Ciraku et al., 2021]). Briefly, adult mice (4–6 weeks) or mice after 12 days following intracranial injection were decapitated and their brains rapidly removed into ice-cold (4°C) sucrose-aCSF composed of the following (in mM): 280 sucrose, 5 KCl, 2 MgCl2, 1 CaCl2, 20 glucose, 10 HEPES, 5 Na^+-ascorbate, 3 thiourea, 2 Na^+-pyruvate; pH = 7.3. […] Tumor growth was monitored via bioluminescence imaging on the IVIS 200 system (Perkin Elmer), and results were analyzed using Living Image software (Caliper Life Sciences, Waltham, MA, United StatesUnited States). […] Tissues were incubated at 37 ℃ , 5% CO2 for 4 h, and absorbance at 490 nm was measured with a Tecan Spark Microplate reader.

4T1BR cells = assay: Cell death by propidium iodide flow cytometry; assay type: cell-based; settings: 100 μM, 48 hours
Description: (§1) Cells were prepared according to manufacturer protocol (BD Pharmingen, Propidium Iodine). Briefly, cells were trypsinized (0.25% Trypsin), counted, washed twice with 1xPBS, and resuspended in 100uL 1X binding buffer incubated with 5 uL Propidium Iodine (PI) staining solution for 15 min in the dark at room temperature. Following incubation, the volume was brought up to 500uL of 1X binding buffer. Tubes were then analyzed using a Guava easyCyte flow cytometer. All data were collected and analyzed using a Guava EasyCyte Plus system and CytoSoft (version 5.3) software (Millipore). Data are gated and expressed relative to the appropriate unstained and single-stained controls.

MDA-MB-231BR cells [3] = assay: Cell death by propidium iodide flow cytometry; assay type: cell-based; settings: 100 μM, 48 h
Description: as §1

FASN = assay: Immunoblot of FASN protein levels; assay type: cell-based; settings: MDA-MB-231BR cells, 24 h
Description: Immunoblotting protocols have been previously described. Briefly, cell lysates from one to five x 10^6 cells were prepared in radioimmune precipitation assay buffer (150 mM NaCl, 1% NP40, 0.5% DOC, 50 mM Tris HCL at pH 8, 0.1% SDS, 10% glycerol, 5 mM EDTA, 20 mM NaF, and 1 mM Na3VO4) supplemented with 1 μg/mL each of pepstatin, leupeptin, aprotinin, and 200 μg/mL PMSF. Lysates were cleared by centrifugation at 16,000 x g for 15 min at 4°C and analyzed by SDS-PAGE and autoradiography with chemiluminescence. Proteins were analyzed by immunoblotting using primary antibodies indicated above.

MDA-MB-231BR cells [4] = assay: BODIPY staining of lipid droplets; assay type: cell-based; settings: 100 μM, 48 h
Description: Cells were treated with 5uM BODIPY 493/503 (Invitrogen) and NucBlue® Live reagent (Invitrogen) in PBS for 15 min, washed 2x with 1xPBS, fixed using 4% paraformaldehyde for 30 min at RT in the dark and washed in 1xPBS prior to mounting and imaging on EVOS FL (Life Technologies) using […] for BODIPY and DAPI channel for NucBlue.

N[C@H](C(=O)N1CCCC(c2ccccc2)(c2ccccc2)C1)C1CC1 [AD-8007]
tumor burden (bioluminescence) (MDA-MB-231BR cells [1]; MDA-MB-231BR intracranial, 50 mg/kg daily, 14 days): significantly reduced tumor burden
tumor burden and proliferation via H&E and Ki67 staining (MDA-MB-231BR cells [1]; MDA-MB-231BR intracranial, 14 days post treatment): reduction in tumor burden and proliferation
survival (MDA-MB-231BR cells [1]; MDA-MB-231BR intracranial, drug withdrawn after treatment, Kaplan Meyer): significantly extended surivial
FASN staining in tumors (MDA-MB-231BR cells [1]; MDA-MB-231BR tumors, 14 days treatment, IHC): reduced expression of FASN staining
body weight (MDA-MB-231BR cells [1]; immunodeficient mice, 50 mg/kg daily, 14 days): did not cause significant weight lost
tumor growth of preformed tumors ex vivo [2]: significantly reduced tumor growth of preformed tumors
cell death (PI+ cells) (4T1BR cells): significantly increased cell death
cell death (PI+ cells) (MDA-MB-231BR cells [3]): significantly increased cell death
protein levels of FASN (FASN): reduced protein levels of FASN
lipid droplet content (MDA-MB-231BR cells [4]): significantly reduced lipid droplet content
